Experimental data published in US20190022239A1, “NOVEL BIOMOLECULE CONJUGATES AND USES THEREFOR” (The University of Western Australia, priority 2016, published 2019).
“Also recorded” adds a separate entry of the source.

Experiments:
RIP-Tag insulinoma = assay: Immune cell infiltration in RIP-Tag insulinoma (immunofluorescence); format: in vivo, mice; settings: 2 and 5 μg daily i.v. for 5 days, vs control groups
Procedure: Mice bearing RIP-Tag insulinoma at 25 weeks of age were treated with 2 and 5 μg TNF60 -CSG (in 100 μL) by daily intravenous injection for 5 days. FIG. 6 presents microscopic evaluation of CD4+ and CD8+ T cells and circulatory CD11b macrophages detected by immunofluorescence staining of tissue cross sections.

[1] = system: RIP-Tag insulinoma and 4T1 breast carcinoma; assay: Tumour vessel perfusion (CD31:lectin ratio); format: in vivo, mice; settings: 2 μg/day × 5
Procedure: The inventors then evaluated vessel perfusion in RIP-Tag insulinoma and 4T1. breast carcinoma from mice treated with TNFα-CSG (2 μg/day×5), as measured by CD31:lectin ratio following 10 min intravenous circulation of tomato green lectin.

[2] = system: RIP-Tag insulinoma and hepatocellular carcinoma; assay: In vivo binding specificity of fluorescein-labelled TNFα-CSG and native TNFα; set-up: species or system mice; settings: 130 μg i.v., 30 min circulation
Procedure: Binding specificity of TNFα-CSG to tumours in vivo was assessed by detecting fluorescein-labelled TNFα-CSG and native unconjugated TNFα following 130 μg intravenous injection (30 min circulation).

4T1 tumours = assay: Tumour clearance, whole microscopic images of 4T1 tumours; format: in vivo, mice; settings: 10 μg for five days
hepatocellular carcinoma = assay: Immune cell infiltration in hepatocellular carcinoma (FACS); format: in vivo, mice; settings: 2 μg daily i.v. for 5 days, healthy livers
Procedure: Mice bearing hepatocellular carcinoma at 10 weeks of age were treated with 2 μg TNFα-CSG or control CSG peptide (in 100 μL) by daily intravenous injection for 5 days. The experiment was also conducted on mice with normal, healthy livers, FACS quantification of CD4+ and CD8+ T cells and infiltrating macrophages (CD11b+/CD68+) in whole tumours is shown in FIG. 7. Quantitative analysis of these tumours show at least 3 fold increase in immune cell infiltration compared to CSG-treated tumours (P<0.05).

4T1 tumour = assay: Tumour uptake of Evans blue dye; format: in vivo, mice; settings: 2 μg i.v. for five days; Evans blue 30 min
Procedure: As a result of the reduced tumour ECM content and increased tumour vessel perfusion (Example 4), the inventors then evaluated the ability of tumours treated with TNFα-CSG to take op various reagents. Mice bearing 4T1 tumour were treated with 2 μg TNFα-CSG or CSG control peptide by intravenous injection for five days. Following this, mice were intravenously injected with 100 μL, of 0.9% Evans blue solution and allowed to circulate for 30 min. Tumours were then harvested and photographed.

4T1 breast carcinoma [3] = assay: Immune cell infiltration in 4T1 breast carcinoma (FACS); format: in vivo, mice; settings: 2 μg daily i.v. for 5 days
From the text: Dextran coated iron oxide encapsulated with 18:0 PEG2000 PE micelle formulation and doxorabicin-micelles were made in the laboratory. 4T1 murine breast carcinoma is an orthotopic implant model by inoculating of 5×10^5 cells in die mammary fat pad of syngeneic BALB/c mice. RIP1-TagS insulinoma model (on C3H background) contains the oncogene SV40 Large T antigen (Tag; RIP, rat insulin gene promoter) that is exclusively expressed in β cells of the pancreas resulting in pancreatic tumours of neuroendocrine origin. ALB-Tag HOC (in C3H background) contains the oncogene SV40 Large T antigen (Tag) that is exclusively expressed in hepatocytes under the control of the albumin (ALB) promoter, resulting in rapid (non-metastatic) HCC tumour progression.
Mice bearing 4T1 breast carcinoma, when tumour size reached 500 mm^3, were treated with 0.5 and 2 μg TNFα-CSG or native TNFα (in 100 μL) by daily intravenous injection for 5 days. FACS quantification of CD4+ and CD8+ T cells and infiltrating macrophages (CD11b+/CD68+/F4/80+) harvested in whole tumours is presented in FIG. 5.
As noted in Example 2, native TNFα at 2 μg is toxic (all mice died after receiving 2 doses of 2 μg TNFα). A lower dose of native TNFα (0.5 μg) is not effective compared to 0.5 μg TNFα-CSG (FIG. 5).

advanced insulinoma = assay: Survival of mice bearing advanced insulinoma; format: in vivo; settings: 5 μg daily i.v. for five days at 24 weeks of age
Procedure: Survival studies were conducted using mice bearing advanced insulinoma, at 24 weeks of age, treated with 5 μg TNFα-CSG or 0.8 μg CSG daily for five days by intravenous injection.

4T1 breast carcinoma [4] = assay: Tumour uptake of doxorubicin-micelles; format: in vivo, mice; settings: 2 μg i.v. daily for 5 days, then 100 μL of 1 mM doxorubicin-micelles
Procedure: 4T1 breast carcinoma-bearing mice were treated with 2 μg TNFα-CSG or CSG control, peptide by intravenous injection, daily for 5 days. Mice were then injected with 100 μL of 1 mM doxorubicin-micelles (200 nm in size) and tissues including tumours, spleen and liver were collected for analysis.

4T1 breast tumours = assay: Secondary metastasis of 4T1 breast tumours; format: in vivo, mice; settings: 10 μg daily i.v., up to eight injections
Procedure: 4T1cells in blood, lung, liver and lymph nodes were harvested once the primary tumours reached 2,000 mm^3. Cell suspensions from these tissues were cultured in 6-thioguanine-containing media to select for 4T1 cells that are resistant to 6-thioguanine. Colonic metastasis of methylene blue stained cells were counted. It is known that the lung is the primary site of metastasis of breast tumours. […] Similarly, the colonic metastasis counts in liver and lymph nodes were lower in the TNFα-CSG treated group.

[5] = system: 4T1 breast carcinoma and RIP-Tag insulinoma; assay: Tumour stiffness by optical coherence tomography/micro-elastography; format: in vivo, mice; settings: 2 μg/day × 4 total injections
atherosclerotic plaque = assay: TNFα-CSG therapy of aging ApoE null mice; settings: for ALT / AST / Troponin: plasma, median (interquartile range)
Procedure: Aging ApoE null mice were treated with 10 μg TNFα-CSG or 0.8 μg CSG peptide daily for five days by intravenous injection. Tissue, including aorta and plasma, were collected from euthanised animals at 70 weeks of age. Plasma samples were collected after 1 and 10 weeks of therapy and assessed for markers of (i) circulating cholesterol (total cholesterol, HDL and LDL), (ii) cardiac necrosis (troponin) and (iii) liver damage (alanine transaminase, ALT and aspartate transaminase, AST).

Q: “TNFα-CSG: Mature murine TNFα (SEQ ID NO:6) with C-terminal conjugated peptide CSGRRSSKC connected via a GGG linker; recombinant fusion protein” was tested. Which “immune cell infiltration (CD4+, CD8+ T cells, CD11b macrophages)” value (RIP-Tag insulinoma) did it give?
A: Its value is “significant increase in immune cell infiltration”.

Q: And the “vessel width vs control treated tumours” value [1]?
A: Its value is “significantly wider”.

Q: What about the “CD31:lectin ratio” value ([1]; 10 min i.v. circulation of lectin) of the same substance?
A: The value was roughly 1.

Q: And the “binding to tumour tissue in vivo” value [2]?
A: Its value is “specifically targeted”.

Q: What about the “binding to normal tissues in vivo” value ([2]; normal tissues) of the same substance?
A: Its value is “limited binding to normal pancreas, liver, heart, and kidney”.

Q: What about the “tumour clearance (hypoxia marker staining)” value (4T1 tumours) of the same substance?
A: Its value is “large areas at the centre of the tumour devoid of tumour cells”.

Q: What about the “effect on immune cell infiltration in normal liver” value (hepatocellular carcinoma) of the same substance?
A: Its value is “no effect on normal liver”.

Q: And the “tumour permeability to Evans blue dye vs control-treated tumours” value (4T1 tumour)?
A: The value was “more permeable to Evans blue dye”.

Q: And the “increase in immune cell infiltration (CD4+, CD8+ T cells, macrophages)” value (4T1 breast carcinoma [3])?
A: Its value is “most effective”.

Q: And the “survival compared to CSG-treated mice” value (advanced insulinoma)?
A: The value was “significantly enhanced”.

Q: What about the “doxorubicin (autofluorescence) in treated tumours” value (4T1 breast carcinoma [4]) of the same substance?
A: The value was “strong traces of doxorubicin”.

Q: What about the “hypoxia in primary tumours” value (4T1 breast tumours) of the same substance?
A: The value was “significantly reduced hypoxia”.

Q: And the “lung metastasis (cell density/tissue)” value (4T1 breast tumours)?
A: Its value is “significantly reduced lung metastasis”.

Q: And the “metastatic colony counts in liver and lymph nodes” value (4T1 breast tumours)?
A: Its value is “lower”.

Q: And the tumour centre (4T1 breast tumours)?
A: The tumour centre was “enlarged tumour centres that were cleared of tumour burden”.

Q: What about the tumour stiffness [5] of the same substance?
A: The tumour stiffness was “below 100 kPa”.

Q: And the “tissue stiffness (stiffness >100 kPa) and stiffness variance” value ([5]; frequency distribution)?
A: The value was “significantly reduced”.

Q: What about the “plaque burden (plaque positive area)” value (atherosclerotic plaque; 10 μg daily i.v. for five days) of the same substance?
A: The value was “significantly reduced plaque burden”.

Q: And the “circulating HDL levels” value (atherosclerotic plaque; 10 weeks after administration)?
A: The value was “increase in circulating HDL levels; also recorded: significantly increased”.

Q: And the “circulating LDL” value (atherosclerotic plaque; 10 weeks after administration)?
A: Its value is “reduction in LDL”.

Q: What about the “plasma LDL:HDL ratio” value (atherosclerotic plaque; 10 weeks after therapy) of the same substance?
A: The value was “reduced”.

Q: And the “plasma LDL:HDL ratio” value (atherosclerotic plaque; after 1 week of therapy)?
A: The value was “increased”.

Q: And the “activated endothelia (CD31+, endoglin+) in plaque intima” value (atherosclerotic plaque; mouse, in vivo)?
A: The value was “increased the expression of activate endothelia”.

Q: What about the “macrophage content (CD11b+) in plaque” value (atherosclerotic plaque; mouse, in vivo) of the same substance?
A: Its value is “reduced macrophage content”.

Q: What about the “ECM in plaque intima (collagen I, collagen IV, laminin)” value (atherosclerotic plaque; mouse, in vivo, iv) of the same substance?
A: The value was “degraded ECM in plaque intima”.

Q: And the “cardiac or liver toxicity” value (atherosclerotic plaque; plasma troponin, ALT, AST)?
A: The value was “did not elevate cardiac or liver toxicity”.

Q: And the ALT (atherosclerotic plaque; 1 week)?
A: Its ALT is 33.3 (15.4-115.5) U/L.

Q: And the AST (atherosclerotic plaque; 1 week)?
A: Its AST is 106 (74.0-195.5) U/L.

Q: And the Troponin (atherosclerotic plaque; 1 week)?
A: Its Troponin is 15.3 (10.7-30.2) ng/L.

Q: What about the ALT (atherosclerotic plaque; 10 weeks) of the same substance?
A: The ALT was 26.0 (18.5-79.8) U/L.

Q: What about the AST (atherosclerotic plaque; 10 weeks) of the same substance?
A: The AST was 81.5 (52.3-184.3) U/L.

Q: What about the Troponin (atherosclerotic plaque; 10 weeks) of the same substance?
A: Its Troponin is 15.1 (5.7-24.0) ng/L.
